Structures can show the parent of a compound that is named as a salt. Some results are limits rather than exact numbers.

The target in one assay is T1, p38 alpha (Homo sapiens, UniProt Q16539).
T1 construct: purchased Invitrogen PV3304
Nature of the assay: P38 alpha enzyme inhibition assay (Alphascreen kinase activity assay). The assay is classed as biochemical. Particulars: 100 pM p38 alpha, 2 hours preincubation at 25° C., 250 μM ATP, ATF-2 fusion protein; read-out: p38α inhibition. Summed up:
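100 pM p38 alpha preincubated 2 h at 25 °C with compound and 0.3 μg/ml ATF-2 fusion substrate (HEPES pH 7.5, MgCl2, 1% DMSO). Reaction started with 250 μM ATP, run 1 h at 25 °C, stopped with EDTA; phospho-ATF2 detected by AlphaScreen luminescence. IC50 from concentration-response curves.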

In assay [1] the test system is Peripheral Blood Mononuclear Cells (PBMCs), TNFα release. Nature of the assay: LPS-stimulated PBMC TNFα release assay. It counts as cell-based. Particulars: human PBMC, LPS (10 ng/ml), 18 h, compound 1 h before LPS; read-out: LPS-stimulated PBMC TNFα release inhibition. The method, boiled down: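 Human PBMCs from healthy donors, serum-starved 3 h, then pre-incubated 1 h at 37 °C with compound in 1% FBS medium before LPS (10 ng/ml) for 18 h. Supernatant TNFα measured by MSD; IC50 from dose-response as % inhibition of control, at least three experiments.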

T1 sequence (Q16539 whole entry): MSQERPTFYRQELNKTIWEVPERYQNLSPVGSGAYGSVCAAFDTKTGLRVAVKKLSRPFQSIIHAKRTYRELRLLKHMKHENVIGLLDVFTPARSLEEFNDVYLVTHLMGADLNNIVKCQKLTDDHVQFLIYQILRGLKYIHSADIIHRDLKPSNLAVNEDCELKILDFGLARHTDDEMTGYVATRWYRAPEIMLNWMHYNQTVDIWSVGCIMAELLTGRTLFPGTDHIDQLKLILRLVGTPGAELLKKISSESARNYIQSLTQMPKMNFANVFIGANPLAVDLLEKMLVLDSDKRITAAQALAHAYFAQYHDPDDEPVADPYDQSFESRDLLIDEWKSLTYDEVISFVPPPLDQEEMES

With `CN1CCC[C@H]1C(=O)NCc1nc(NC(=O)N[C@H]2CC[C@@H](Oc3ccc4nnc(C(C)(C)C)n4c3)c3ccccc32)cc(C(C)(C)C)n1` [Example 110, (S)-N-((4-(tert-butyl)-6-(3-((1S,4R)-4-((3-(tert-butyl)-[1,2,4]triazolo[4,3-a]pyridin-6-yl)oxy)-1,2,3,4-tetrahydronaphthalen-1-yl)ureido)pyrimidin-2-yl)methyl)-1-methylpyrrolidine-2-carboxamide], the IC50 at p38 alpha fell in the range of 1 to 10 nM; in assay [1], 1 to 5 nM.
In the same order, the values of `CC(C)(C)c1cc(NC(=O)N[C@H]2CC[C@@H](Oc3ccc4nnc(C(C)(C)C)n4c3)c3ccccc32)nc(C(=O)NCCN2CCC(O)CC2)c1` [Example 211, 4-(tert-butyl)-6-(3-((1S,4R)-4-((3-(tert-butyl)-[1,2,4]triazolo[4,3-a]pyridin-6-yl)oxy)-1,2,3,4-tetrahydronaphthalen-1-yl)ureido)-N-(-(2-(4-hydroxypiperidin-1-yl)ethyl)picolinamide formate salt] are less than 1 nM and greater than 5 nM.
As for `CC(C)(C)c1cc(NC(=O)N[C@H]2CC[C@@H](Oc3ccc4nnc(C(C)(C)C)n4c3)c3ccccc32)nc(C(=O)NCCN2CCC(O)CC2)n1` [Example 108, 4-(tert-butyl)-6-(3-((1S,4R)-4-((3-(tert-butyl)-[1,2,4]triazolo[4,3-a]pyridin-6-yl)oxy)-1,2,3,4-tetrahydronaphthalen-1-yl)ureido)-N-(2-(4-hydroxypiperidin-1-yl)ethyl)pyrimidine-2-carboxamide], the IC50 on p38 alpha was less than 1 nM; in assay [1], greater than 5 nM.
In the same order, the values of `CN(CCO)Cc1nc(NC(=O)N[C@H]2CC[C@@H](Oc3ccc4nnc(C(C)(C)C)n4c3)c3ccccc32)cc(C(C)(C)C)n1` [Example 88, 1-(6-(tert-butyl)-2-(((2-hydroxyethyl)(methyl)amino)methyl)pyrimidin-4-yl)-3-((1S,4R)-4-((3-(tert-butyl)-[1,2,4]triazolo[4,3-a]pyridin-6-yl)oxy)-1,2,3,4-tetrahydronaphthalen-1-yl)urea] are 1 to 10 nM and greater than 5 nM.
In the same order, the values of `CC(C)(C)c1cc(NC(=O)N[C@H]2CC[C@@H](Oc3ccc4nnc(C(C)(C)C)n4c3)c3ccccc32)nc(C(=O)NCCN2CC(O)C2)n1` [Example 78, 4-(tert-butyl)-6-(3-((1S,4R)-4-((3-(tert-butyl)-[1,2,4]triazolo[4,3-a]pyridin-6-yl)oxy)-1,2,3,4-tetrahydronaphthalen-1-yl)ureido)-N-(2-(3-hydroxyazetidin-1-yl)ethyl)pyrimidine-2-carboxamide] are less than 1 nM and greater than 5 nM.
In the same order, the values of `CN1CCC[C@@]1(C)c1nnc2ccc(O[C@@H]3CC[C@H](NC(=O)Nc4cc(C(C)(C)C)ncn4)c4ccccc43)cn12` [Example 14, 1-(6-(tert-Butyl)pyrimidin-4-yl)-3-((1S,4R)-4-((3-((S)-1,2-dimethylpyrrolidin-2-yl)-[1,2,4]triazolo[4,3-a]pyridin-6-yl)oxy)-1,2,3,4-tetrahydronaphthalen-1-yl)urea] are less than 1 nM and less than 1 nM.
Turning to `COCCN(C)CCNC(=O)c1cc(NC(=O)N[C@H]2CC[C@@H](Oc3ccc4nnc(C(C)(C)C)n4c3)c3ccccc32)cc(C(C)(C)C)n1` [Example 192, 6-(tert-butyl)-4-(3-((1S,4R)-4-((3-(tert-butyl)-[1,2,4]triazolo[4,3-a]pyridin-6-yl)oxy)-1,2,3,4-tetrahydronaphthalen-1-yl)ureido)-N-(2-((2-methoxyethyl)(methyl)-amino)ethyl)picolinamide], the figures for the IC50 (on p38 alpha; in assay [1]) were 1 to 10 nM and 1 to 5 nM, respectively.
Regarding `COCc1nc(NC(=O)N[C@H]2CC[C@@H](Oc3ccc4nnc([C@]5(C)CCCN5C)n4c3)c3ccccc32)cc(C(C)(C)C)n1` [Example 43, 1-(6-(tert-Butyl)-2-(methoxymethyl)pyrimidin-4-yl)-3-((1S,4R)-4-((3-((S)-1,2-dimethylpyrrolidin-2-yl)-[1,2,4]triazolo[4,3-a]pyridin-6-yl)oxy)-1,2,3,4-tetrahydronaphthalen-1-yl)urea], the IC50 on p38 alpha is 1 to 10 nM; in assay [1] it was 1 to 5 nM.
On to `CCC(CC)c1nnc2ccc(O[C@@H]3CC[C@H](NC(=O)Nc4cc(C(C)(C)C)nc(C(=O)NC5CN(C)C5)n4)c4ccccc43)cn12` [Example 84, 4-(tert-butyl)-N-(1-methylazetidin-3-yl)-6-(3-((1S,4R)-4-((3-(pentan-3-yl)-[1,2,4]triazolo[4,3-a]pyridin-6-yl)oxy)-1,2,3,4-tetrahydronaphthalen-1-yl)ureido)pyrimidine-2-carboxamide], for which the IC50 at p38 alpha is less than 1 nM; in assay [1], greater than 5 nM.
In the same order, the values of `COCC(C)(C)c1nnc2ccc(O[C@@H]3CC[C@H](NC(=O)Nc4cc(C(=O)NCCN(C)C)nc(C(C)(C)C)c4)c4ccccc43)cn12` [Example 190, 6-(tert-butyl)-N-(2-(dimethylamino)ethyl)-4-(3-((1S,4R)-4-((3-(1-methoxy-2-methylpropan-2-yl)-[1,2,4]triazolo[4,3-a]pyridin-6-yl)oxy)-1,2,3,4-tetrahydronaphthalen-1-yl)ureido)picolinamide] are less than 1 nM and 1 to 5 nM.
In the case of `CC(C)(C)c1cc(NC(=O)N[C@H]2CC[C@@H](Oc3ccc4nnc(C5CCCC5)n4c3)c3ccccc32)nc(C(=O)NCCN2CCOCC2)n1` [Example 75, 4-(tert-butyl)-6-(3-((1S,4R)-4-((3-cyclopentyl-[1,2,4]triazolo[4,3-a]pyridin-6-yl)oxy)-1,2,3,4-tetrahydronaphthalen-1-yl)ureido)-N-(2-morpholinoethyl)-pyrimidine-2-carboxamide], the values for the IC50 (on p38 alpha; in assay [1]) were 1 to 10 nM and greater than 5 nM, respectively.
`CCC(CC)c1nnc2ccc(O[C@@H]3CC[C@H](NC(=O)Nc4cc(C(=O)NCCN(C)C)nc(C(C)(C)C)c4)c4ccccc43)cn12` [Example 207, 6-(tert-butyl)-N-(2-(dimethylamino)ethyl)-4-(3-((1S,4R)-4-((3-(pentan-3-yl)-[1,2,4]triazolo[4,3-a]pyridin-6-yl)oxy)-1,2,3,4-tetrahydronaphthalen-1-yl)ureido)picolinamide]: the IC50 (on p38 alpha; in assay [1]) was less than 1 nM each time.
Consider `CC(C)(C)c1cc(NC(=O)N[C@H]2CC[C@@H](Oc3ccc4nnc(C(C)(C)C)n4c3)c3ccccc32)nc(C(=O)NCCN2CCCOCC2)c1` [Example 209, N-(2-(1,4-oxazepan-4-yl)ethyl)-4-(tert-butyl)-6-(3-((1S,4R)-4-((3-(tert-butyl)-[1,2,4]triazolo[4,3-a]pyridin-6-yl)oxy)-1,2,3,4-tetrahydronaphthalen-1-yl)ureido)picolinamide formate salt], for which the IC50 (at p38 alpha; in assay [1]) was less than 1 nM each time.
Regarding `CN(C)CCNC(=O)c1nc(NC(=O)N[C@H]2CC[C@@H](Oc3ccc4nnc(C5(C)CC5)n4c3)c3ccccc32)cc(C(C)(C)C)n1` [Example 32, 4-(tert-Butyl)-N-(2-(dimethylamino)ethyl)-6-(3-((1S,4R)-4-((3-(1-methylcyclopropyl)-[1,2,4]triazolo[4,3-a]pyridin-6-yl)oxy)-1,2,3,4-tetrahydronaphthalen-1-yl)ureido)pyrimidine-2-carboxamide], the IC50 at p38 alpha was less than 1 nM; in assay [1], greater than 5 nM.
Regarding `CC(C)(C)c1cc(NC(=O)N[C@H]2CC[C@@H](Oc3ccc4nnc(C(C)(C)C)n4c3)c3ccccc32)nc(CN2CCOCC2)n1` [Example 21, 1-(6-(tert-Butyl)-2-(morpholinomethyl)pyrimidin-4-yl)-3-((1S,4R)-4-((3-(tert-butyl)-[1,2,4]triazolo[4,3-a]pyridin-6-yl)oxy)-1,2,3,4-tetrahydronaphthalen-1-yl)urea], the values for the IC50 (on p38 alpha; in assay [1]) were 1 to 10 nM and greater than 5 nM, respectively.
In the same order, the values of `C[C@H]1CCCCN1c1nnc2ccc(O[C@@H]3CC[C@H](NC(=O)Nc4cc(C(C)(C)C)nc(C(=O)NCCN(C)C)n4)c4ccccc43)cn12` [Example 37, 4-(tert-Butyl)-N-(2-(dimethylamino)ethyl)-6-(3-((1S,4R)-4-((3-((S)-2-methylpiperidin-1-yl)-[1,2,4]triazolo[4,3-a]pyridin-6-yl)oxy)-1,2,3,4-tetrahydronaphthalen-1-yl)ureido)pyrimidine-2-carboxamide] are less than 1 nM and greater than 5 nM.
In the same order, the values of `CC(C)(C)c1cc(NC(=O)N[C@H]2CC[C@@H](Oc3ccc4nnc(C(C)(C)C)n4c3)c3ccccc32)nc(C(=O)NCCO)n1` [Example 16, 4-(tert-Butyl)-6-(3-((1S,4R)-4-((3-(tert-butyl)-[1,2,4]triazolo[4,3-a]pyridin-6-yl)oxy)-1,2,3,4-tetrahydronaphthalen-1-yl)ureido)-N-(2-hydroxyethyl)pyrimidine-2-carboxamide] are less than 1 nM and less than 1 nM.
In the same order, the values of `CC(C)(C)c1cc(NC(=O)N[C@H]2CC[C@@H](Oc3ccc4nnc(C(C)(C)C)n4c3)c3ccccc32)nc(CN2CCNC(=O)C2)n1` [Example 113, 1-(6-(tert-Butyl)-2-((3-oxopiperazin-1-yl)methyl)pyrimidin-4-yl)-3-((1S,4R)-4-((3-(tert-butyl)-[1,2,4]-triazolo[4,3-a]pyridin-6-yl)oxy)-1,2,3,4-tetrahydronaphthalen-1-yl)urea partial formate salt] are 1 to 10 nM and greater than 5 nM.

Values taken from patent US10364245B2 (CHIESI FARMACEUTICI S.p.A., priority 2017, dated 2019).
